Assays:
Format in all cases: in vivo, rat
Sprague-Dawley rats [1] = test: Liver ceramide and ceramide-enzyme expression in dexamethasone-treated rats; conditions: dexamethasone 40 μg/Kg IP every 12 hours for 36 hours; myriocin 300 μg/Kg IP for two weeks prior
Description: (A) Sprague-Dawley rats were treated with myriocin (300 μg/Kg, IP, solid bars) or saline (open bars) for two weeks prior to giving administering dexamethasone (40 μg/Kg, IP) or vehicle (5% ethanol) every 12 hours for 36 hours. Animals were euthanized by CO2 inhalation, livers were removed, and ceramide levels were assessed as described in SOM-Methods. Shown are mean ceramide levels+/−S.E.M, n=6 per group. The asterisk denotes that the sample was statistically different from vehicle-treated controls, p<0.05, student's t-test. (B) Livers were obtained as in A, above, and protein and mRNA were extracted as described in SOM-Methods. Levels of transcripts (solid bars) encoding serine palimitoyl transferase isoforms 1 and 2 (SPT1 and SPT2), dihydroceramide synthases (DCS) TL1, UOG, and TRH3, glucosylceramide synthase (GCS), and acid ceramidase (AC) transcripts were obtained by reverse-transcriptase polymerase chain reaction, normalized to β-actin. SPT2 protein levels (white bars) were detected by immunoblotting with an antibody from Cayman Chemicals (Ann Arbor, Mich.) and quantified on a Kodak Image Station 2000R (Rochester, N.Y.). […] (E) The glucose infusion rate required to maintain normal glycemia during insulin infusion (4mU/kg/min) was calculated as the average infusion rate during the 60 minute steady state. […]

Sprague-Dawley rats [2] = test: Glucose tolerance test (glucose 1 g/kg IP) in dexamethasone-treated rats
Description: (A) Sprague-Dawley rats were treated with myriocin (300 μg/Kg, IP, solid bars) or saline (open bars) for two weeks prior to giving administering dexamethasone (40 μg/Kg, IP) or vehicle (5% ethanol) every 12 hours for 36 hours. Animals were euthanized by CO2 inhalation, livers were removed, and ceramide levels were assessed as described in SOM-Methods. Shown are mean ceramide levels+/−S.E.M, n=6 per group. The asterisk denotes that the sample was statistically different from vehicle-treated controls, p<0.05, student's t-test. (B) Livers were obtained as in A, above, and protein and mRNA were extracted as described in SOM-Methods. Levels of transcripts (solid bars) encoding serine palimitoyl transferase isoforms 1 and 2 (SPT1 and SPT2), dihydroceramide synthases (DCS) TL1, UOG, and TRH3, glucosylceramide synthase (GCS), and acid ceramidase (AC) transcripts were obtained by reverse-transcriptase polymerase chain reaction, normalized to β-actin. SPT2 protein levels (white bars) were detected by immunoblotting with an antibody from Cayman Chemicals (Ann Arbor, Mich.) and quantified on a Kodak Image Station 2000R (Rochester, N.Y.). Data represent the fold-change in transcript or protein in dexamethasone-treated animals relative to vehicle controls. […] (C and D) Rats were challenged with glucose (1 g/kg) given intraperitoneally (IP) following treatment with dexamethasone (squares), ethanol carrier (triangles), myriocin (open shapes), or saline (solid shapes) as in A, above. Tail vein blood (3 μl) was sampled for glucose (C)(using the Glucometer Elite from Bayer Corp., Tarrytown, N.Y.) or insulin (D) (using an Elisa kit from Linco Diagnostics, Springfield, Mo.). […] (E-G) Hyperinsulinemic euglycemic clamps were performed on animals (n=4 per group) treated as in A, above, as described in SOM-Methods. Data from animals receiving myriocin are depicted in solid bars. (E) The glucose infusion rate required to maintain normal glycemia during insulin infusion ([…]) was calculated as the average infusion rate during the 60 minute steady state. (F) Hepatic glucose output was estimated by the disappearance of [^14C] glucose from a bolus dose given during the steady state minus the glucose infusion rate. (G) Disappearance of a bolus dose of [^3H] 2-deoxyglucose from the bloodstream was used to estimate the rate of whole body glucose uptake.
Tail vein blood (3 μl) was sampled for glucose determination (Hitachi 911 clinical chemistry analyzer, Roche, Indianapolis, Ind. or Glucometer Elite, Bayer Corp., Tarrytown, N.Y.)-30 minutes, immediately before and 15, 30, 45, 60, 90, and 120 min after glucose administration. Additionally, serum was collected and analyzed for insulin by Elisa (Linco Diagnostics, Springfield, Mo.).

Sprague-Dawley rats [3] = test: Lipid infusion with hyperinsulinemic euglycemic clamps; conditions: for Glucose, During Clamp / FFA, Before Clamp / FFA, Before Infusion / FFA, During Clamp / Glucose, Before Clamp / Glucose, Before Infusion / Insulin, Before Clamp / Insulin, Before Infusion / Insulin, During Clamp: plasma, mean ± standard error, n=4; for Glucose, During Clamp: 30 minute steady state
Excerpt: The more common mechanism by which insulin resistance likely develops in the obese is through the accumulation of fats in tissues not-suited for lipid storage. Indeed, intramyocellular lipid levels inversely correlate with insulin sensitivity, and are one of the best predictors of insulin resistance in humans. To mimic this condition in rats, a 20% lard oil-heparin infusate was delivered into the bloodstream of Sprague-Dawley rats via jugular catheters. […] To assess muscle insulin sensitivity during the infusion, hyperinsulinemic-euglycemic clamps were performed on conscious, unrestrained rats during the terminal 90 minutes of the protocol. Lard oil infusion decreased insulin-stimulated glucose disposal to 47% of glycerol treated control subjects (FIG. 3C). […] Differences in the glucose infusion rats could not be accounted for by the slight differences in the glucose concentration that was achieved during the clamp nor to differences in steady-state insulin concentrations (Table 3).
Male Sprague-Dawley rats (˜250 grams) were randomly divided into nine different groups. Glycerol, 20% lard oil, or 20% soy oil emulsions were prepared as previously described (Stein 1997) and infused at a constant rate of 5 mL/Kg/hour. To activate lipoprotein lipase, heparin (6 units/hour) was added to the triglyceride emulsions. Lipids were infused in animals treated with control injections (normal saline), myriocin (100 μg/Kg IP) or cycloserine (50 mg/Kg IP). Drugs were given 12 hours prior to lipid infusion and equivalent doses were given intravenously at the time of infusion. […] Following lipid infusion animals were deeply anesthetized with sodium pentobarbital and soleus muscles were rapidly dissected out and rapidly frozen in liquid nitrogen.
Clamps were performed in conscious unrestrained animals using swivels and tethers (Instech, Plymouth Meeting, Pa.) to allow uninterrupted movement of the animal without disruption of infusion lines. Hyperinsulinemia was initiated by intravenous infusion of insulin (10 mU/kg/min at a flow rate of 4 μL/min).

[4] = test system: Zucker Diabetic Fatty (ZDF) rats; test: Myriocin treatment of Zucker Diabetic Fatty rats
Sprague dawley rats = test: Hyperinsulinemic euglycemic clamps of dexamethasone treated rats; conditions: plasma, 60 minute steady state, mean ± standard error, n=4
[5] = dexamethasone with or without myriocin pretreatment
[6] = glucose challenge 1 g/kg IP, n=6 per group, p<0.05
[7] = Intralipid infusion, with or without myriocin or cycloserine
[8] = lard oil infusion, with or without myriocin or cycloserine
[9] = treatment starting at week 8, vs vehicle

Structure (SMILES): CCCCCCC(=O)CCCCCC/C=C/C[C@@H](O)[C@H](O)[C@@](N)(CO)C(=O)O [Myriocin]
- ceramide levels in the liver (Sprague-Dawley rats [1]): Reducing ceramide levels
- glucose disposal / glucose intolerance in glucose tolerance test (Sprague-Dawley rats [2]; [5]): significantly negated glucocorticoid-induced glucose intolerance
- insulin levels during glucose tolerance test (Sprague-Dawley rats [2]; [5]): normalized circulating insulin concentrations
- area under the curve, glucose (Sprague-Dawley rats [2]; [6]): significantly lowered the area under the curve
- area under the curve, insulin (Sprague-Dawley rats [2]; [6]): significantly lowered the area under the curve
- insulin-stimulated glucose disposal / insulin resistance (Sprague-Dawley rats [3]; [7]): Neither myriocin nor cycloserine prevented
- muscle DAG levels (Sprague-Dawley rats [3]; [7]): Neither myriocin nor cycloserine prevented
- ceramide in skeletal muscle (Sprague-Dawley rats [3]; [8]): blocked ceramide synthesis
- diacylglycerol (DAG) in muscle (Sprague-Dawley rats [3]; [8]): Neither myriocin nor cycloserine reduced DAG
- glucose utilization in clamp (Sprague-Dawley rats [3]; lard-infused animals): restored glucose utilization
- Glucose, During Clamp (Sprague-Dawley rats [3]; Lipid: Glycerol): 111.2 ± 6.6 mg/dL
- Glucose, During Clamp (Sprague-Dawley rats [3]; Lipid: Lard oil (PBS or drug)): 108.4 ± 1.0 mg/dL
- Glucose, During Clamp (Sprague-Dawley rats [3]; Lipid: Soy oil (PBS or drug)): 108.3 ± 0.4 mg/dL
- FFA, Before Clamp (Sprague-Dawley rats [3]; Lipid: Glycerol): 0.455 ± 0.13 mM
- FFA, Before Infusion (Sprague-Dawley rats [3]; Lipid: Glycerol): 1.22 ± 0.25 mM
- FFA, During Clamp (Sprague-Dawley rats [3]; Lipid: Glycerol): 0.872 ± 0.75 mM
- Glucose, Before Clamp (Sprague-Dawley rats [3]; Lipid: Glycerol): 117.7 ± 9.1 mg/dL
- Glucose, Before Infusion (Sprague-Dawley rats [3]; Lipid: Glycerol): 103.0 ± 10.6 mg/dL
- Insulin, Before Clamp (Sprague-Dawley rats [3]; Lipid: Glycerol): 1.90 ± 0.71 ng/mL
- Insulin, Before Infusion (Sprague-Dawley rats [3]; Lipid: Glycerol): 0.436 ± 0.03 ng/mL
- Insulin, During Clamp (Sprague-Dawley rats [3]; Lipid: Glycerol): 8.02 ± 2.52 ng/mL
- FFA, Before Clamp (Sprague-Dawley rats [3]; Lipid: Lard oil (PBS or drug)): 1.52 ± 0.49 mM
- FFA, Before Infusion (Sprague-Dawley rats [3]; Lipid: Lard oil (PBS or drug)): 0.912 ± 0.30 mM
- FFA, During Clamp (Sprague-Dawley rats [3]; Lipid: Lard oil (PBS or drug)): 2.427 ± 0.30 mM
- Glucose, Before Clamp (Sprague-Dawley rats [3]; Lipid: Lard oil (PBS or drug)): 123.3 ± 3.8 mg/dL
- Glucose, Before Infusion (Sprague-Dawley rats [3]; Lipid: Lard oil (PBS or drug)): 101.0 ± 11.4 mg/dL
- Insulin, Before Clamp (Sprague-Dawley rats [3]; Lipid: Lard oil (PBS or drug)): 1.90 ± 0.50 ng/mL
- Insulin, Before Infusion (Sprague-Dawley rats [3]; Lipid: Lard oil (PBS or drug)): 0.407 ± 0.47 ng/mL
- Insulin, During Clamp (Sprague-Dawley rats [3]; Lipid: Lard oil (PBS or drug)): 17.02 ± 3.79 ng/mL
- FFA, Before Clamp (Sprague-Dawley rats [3]; Lipid: Soy oil (PBS or drug)): 1.58 ± 0.57 mM
- FFA, Before Infusion (Sprague-Dawley rats [3]; Lipid: Soy oil (PBS or drug)): 1.01 ± 0.10 mM
- FFA, During Clamp (Sprague-Dawley rats [3]; Lipid: Soy oil (PBS or drug)): 1.80 ± 0.44 mM
- Glucose, Before Clamp (Sprague-Dawley rats [3]; Lipid: Soy oil (PBS or drug)): 105.0 ± 4.6 mg/dL
- Glucose, Before Infusion (Sprague-Dawley rats [3]; Lipid: Soy oil (PBS or drug)): 109.3 ± 10.4 mg/dL
- Insulin, Before Clamp (Sprague-Dawley rats [3]; Lipid: Soy oil (PBS or drug)): 2.46 ± 1.1 ng/mL
- Insulin, Before Infusion (Sprague-Dawley rats [3]; Lipid: Soy oil (PBS or drug)): 0.305 ± 0.08 ng/mL
- Insulin, During Clamp (Sprague-Dawley rats [3]; Lipid: Soy oil (PBS or drug)): 11.55 ± 2.91 ng/mL
- age until which the improvement in blood glucose persisted ([4]; ZDF rats): at least 16 weeks
- ceramides in liver, soleus and serum ([4]; ZDF rats): reduced levels of the sphingolipid in all these tissues
- tolerability ([4]; ZDF rats and lean controls, myriocin for up to 6 weeks): well-tolerated
- glucose homeostasis ([4]; male ZDF rats, myriocin 0.3 mg/kg IP every other day (FIG. 4 legend)): markedly improved glucose homeostasis
- side effects ([4]; rat, in vivo): no apparent side effects
- onset of diabetes ([4]; treatment starting at week 8): prevented the onset of diabetes
- plasma glucose levels [4, 9]: reduced
- triglyceride levels [4, 9]: reduced
- Glucose, During Clamp (Sprague dawley rats; Dexamethasone-treated (Saline or Myriocin)): 129.3 ± 3.7 mg/dL
- Glucose, During Clamp (Sprague dawley rats; Dexamethasone: Control): 130.5 ± 2.9 mg/dL

— patent US20100048714A1, “Methods and Compositions Related to Inhibition of Ceramide Synthesis” (University of Utah Research Foundation, priority 2006, published 2010)
